According to US10508120B2, “TYK2 inhibitors and uses thereof” (Nimbus Lakshmi, Inc., priority 2017, dated 2019):

Assays:
[1] = target: human TYK2 (JH2domain-pseudokinase) (Homo sapiens (Human), UniProt P29597); assay: TYK2 JH2 Domain Binding Assay (KINOMEscan)
Method in brief: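 The construct was human TYK2 G556–D888 fused to the NFkB DNA-binding domain and expressed in HEK293 cells; unpurified extract was incubated with compound and liganded beads for 1 hour at room temperature.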

Tyk2 kinase domain (DH1) = Tyk2 kinase domain (DH1) (Homo sapiens (Human), UniProt P29597); assay: Tyk2 Radioactive Kinase Assay; type: biochemical; conditions: 10 μM compound; 10 μM ATP; read-out: Tyk2 JH1% Inhibition @ 10 μM
Tyk2 kinase domain (DH1), sequence (P29597 897-1176): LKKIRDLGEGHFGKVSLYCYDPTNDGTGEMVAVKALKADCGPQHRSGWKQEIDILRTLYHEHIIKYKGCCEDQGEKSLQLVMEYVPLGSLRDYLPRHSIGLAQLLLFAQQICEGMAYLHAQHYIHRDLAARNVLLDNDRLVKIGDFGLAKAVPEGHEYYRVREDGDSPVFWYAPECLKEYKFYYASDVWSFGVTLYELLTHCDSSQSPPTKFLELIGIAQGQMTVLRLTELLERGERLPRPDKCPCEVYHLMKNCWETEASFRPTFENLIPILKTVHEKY
Method in brief: (§1)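 Compounds were tested at a single concentration of 10 μM in a radiometric kinase format against each isolated kinase domain. Activity is reported as percent inhibition at that concentration.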

JAK2 kinase domain (JH1) = JAK2 kinase domain (JH1) (Homo sapiens (Human), UniProt O60674); assay: JAK2 Radioactive Kinase Assay; type: biochemical; conditions: 10 μM compound; 10 μM ATP; read-out: JAK2 JH1% Inhibition @ 10 μM
JAK2 kinase domain (JH1), sequence (O60674 849-1124): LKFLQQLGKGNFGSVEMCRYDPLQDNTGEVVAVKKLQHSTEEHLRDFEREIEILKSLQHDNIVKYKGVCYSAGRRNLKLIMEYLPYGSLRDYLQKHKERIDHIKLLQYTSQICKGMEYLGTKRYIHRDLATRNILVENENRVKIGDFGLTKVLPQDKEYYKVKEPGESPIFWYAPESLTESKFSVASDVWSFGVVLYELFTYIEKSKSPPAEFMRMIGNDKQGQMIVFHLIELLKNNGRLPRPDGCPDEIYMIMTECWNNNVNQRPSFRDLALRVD
Method in brief: as §1

human TYK2 (JH2domain-pseudokinase), sequence (P29597 556-888): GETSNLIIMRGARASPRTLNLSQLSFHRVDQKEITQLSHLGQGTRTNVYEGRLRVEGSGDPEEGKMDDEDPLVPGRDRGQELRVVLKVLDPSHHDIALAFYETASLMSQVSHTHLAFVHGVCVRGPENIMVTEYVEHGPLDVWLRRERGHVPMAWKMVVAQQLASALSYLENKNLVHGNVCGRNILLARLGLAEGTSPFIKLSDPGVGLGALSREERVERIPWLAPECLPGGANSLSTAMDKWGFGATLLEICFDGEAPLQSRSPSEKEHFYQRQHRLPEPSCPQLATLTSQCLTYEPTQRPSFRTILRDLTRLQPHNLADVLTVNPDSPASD

Structure (SMILES)	Kd [1]	inhibition at 10 µM (Tyk2 kinase domain (DH1))	inhibition at 10 µM (JAK2 kinase domain (JH1))
CNc1cc(-c2cn(C(C)C)c3ncccc23)nc2c(C(=O)N[C@H]3COC[C@H]3O)cnn12 [I-841, N-((3S,4S)-4-hydroxytetrahydrofuran-3-yl)-5-(1-isopropyl-1H-pyrrolo[2,3-b]pyridin-3-yl)-7-(methylamino)pyrazolo[1,5-a]pyrimidine-3-carboxamide]	1 to 10 nM	< 50%	< 50%
CNc1cc(Nc2cccn(C3CCN(CCF)CC3)c2=O)nc2c(C(=O)N[C@H]3CC[C@H]3O)cnn12 [I-844]	< 0.2 nM	< 50%	< 50%
CNc1cc(Nc2cccn(C3CCN(CCF)CC3)c2=O)nc2c(C(=O)N[C@@H]3CC[C@H]3O)cnn12 [I-845]	< 0.2 nM	< 50%	< 50%
CNc1cc(Nc2cccn(C3CCN(CCF)CC3)c2=O)nc2c(C(=O)NCC3(CO)CC3)cnn12 [I-846]	< 0.2 nM	< 50%	< 50%
CNc1cc(Nc2cccn(C3CCCN(CCF)C3)c2=O)nc2c(C(=O)NC3CC3)cnn12 (stereo not drawn) [I-848]	< 0.2 nM	< 50%	< 50%
CNc1cc(Nc2cccn(-c3cccnc3C)c2=O)nc2c(C(=O)NCC(C)(C)CO)cnn12 [I-850]	1 to 10 nM	< 50%	< 50%
CNc1cc(Nc2cc(Cl)cn([C@@H]3CCCN(C)C3)c2=O)nc2c(C(=O)N[C@@H]3C[C@@H]3F)cnn12 [I-853]	< 0.2 nM	< 50%	< 50%
CNc1cc(-c2cn(CCN3CCOCC3)c3ncccc23)nc2c(C(=O)N[C@@H]3COC[C@@H]3O)cnn12 [I-855, N-((3R,4R)-4-hydroxytetrahydrofuran-3-yl)-7-(methylamino)-5-(1-(2-morpholinoethyl)-1H-pyrrolo[2,3-b]pyridin-3-yl)pyrazolo[1,5-a]pyrimidine-3-carboxamide]	1 to 10 nM	< 50%	< 50%
CNc1cc(-c2cn(CCN3CCOCC3)c3ncccc23)nc2c(C(=O)N[C@H]3COC[C@H]3O)cnn12 [I-856, N-((3S,4S)-4-hydroxytetrahydrofuran-3-yl)-7-(methylamino)-5-(1-(2-morpholinoethyl)-1H-pyrrolo[2,3-b]pyridin-3-yl)pyrazolo[1,5-a]pyrimidine-3-carboxamide]	0.2 to 1 nM	< 50%	< 50%
CNc1cc(Nc2cccc3ocnc23)nc2c(C(=O)N[C@H]3CC[C@@H]3O)cnn12 [I-858, 5-(benzo[d]oxazol-4-ylamino)-N-((1S,2S)-2-hydroxycyclobutyl)-7-(methylamino)pyrazolo[1,5-a]pyrimidine-3-carboxamide]	< 0.2 nM	< 50%	< 50%
CNc1cc(Nc2cccc(-c3cn(C)nc3F)n2)nc2c(C(=O)NC3CC3)cnn12 [I-859]	< 0.2 nM	< 50%	< 50%
CNc1cc(Nc2cccn([C@H]3C[C@@H]3F)c2=O)nc2c(C(=O)NC3CC3)cnn12 [I-867]	< 0.2 nM	< 50%	< 50%
CNc1cc(Nc2cccn(-c3ncccc3F)c2=O)nc2c(C(=O)NC[C@H](C)CO)cnn12 [I-868]	< 0.2 nM	< 50%	< 50%
CNc1cc(Nc2cccn(-c3ncccc3F)c2=O)nc2c(C(=O)NC[C@@H](C)CO)cnn12 [I-869]	< 0.2 nM	< 50%	< 50%
CNc1cc(Nc2cccn(C3CC4(COC4)C3)c2=O)nc2c(C(=O)N[C@@H]3CC[C@@H]3O)cnn12 [I-871]	0.2 to 1 nM	< 50%	< 50%
CNc1cc(Nc2cccc(N3CC4(CCO4)C3)n2)nc2c(C(=O)N[C@H]3CC[C@H]3O)cnn12 [I-872]	< 0.2 nM	< 50%	< 50%
CNc1cc(Nc2cccc(N3CC4(CCO4)C3)n2)nc2c(C(=O)N[C@@H]3CC[C@@H]3O)cnn12 [I-873]	1 to 10 nM	< 50%	< 50%
CNc1cc(-c2cn(CCN3CCCCC3)c3ncccc23)nc2c(C(=O)N[C@@H]3CC[C@@H]3O)cnn12 [I-874]	1 to 10 nM	< 50%	< 50%
CNc1cc(-c2cn(CCN3CCCCC3)c3ncccc23)nc2c(C(=O)N[C@H]3CC[C@H]3O)cnn12 [I-875]	< 0.2 nM	< 50%	< 50%
CNc1cc(Nc2cccn([C@@H]3CCCC[C@@H]3O)c2=O)nc2c(C(=O)NC3CC3)cnn12 [I-879]	1 to 10 nM	< 50%	< 50%
CNc1cc(Nc2cccn([C@H]3CCCN(CCF)C3)c2=O)nc2c(C(=O)NC3CC3)cnn12 [I-880]	< 0.2 nM	< 50%	< 50%

Structure (SMILES)	Kd [1]	inhibition at 10 µM (Tyk2 kinase domain (DH1))	inhibition at 10 µM (JAK2 kinase domain (JH1))
CNc1cc(Nc2cccn([C@@H]3CCCN(CCF)C3)c2=O)nc2c(C(=O)NC3CC3)cnn12 [I-881]	0.2 to 1 nM	< 50%	< 50%
CNc1cc(Nc2cccn([C@H]3CCC[C@H](OC)C3)c2=O)nc2c(C(=O)N[C@@H]3C[C@@H]3F)cnn12 [I-882]	< 0.2 nM	< 50%	< 50%
CNc1cc(Nc2cccn([C@@H]3CCCC[C@@H]3O)c2=O)nc2c(C(=O)N[C@@H]3C[C@@H]3F)cnn12 [I-889]	1 to 10 nM	< 50%	< 50%
CNc1cc(Nc2cccn(C(C)C)c2=O)nc2c(C(=O)N[C@H]3CC[C@H]3O)cnn12 [I-894]	< 0.2 nM	< 50%	< 50%
CNc1cc(Nc2cccn(C3CCN(CCF)CC3)c2=O)nc2c(C(=O)N[C@@H]3CC[C@@H]3O)cnn12 [I-897]	0.2 to 1 nM	< 50%	< 50%
CNc1cc(Nc2cccn(C3CCN(CCF)CC3)c2=O)nc2c(C(=O)N[C@H]3CC[C@@H]3O)cnn12 [I-899]	< 0.2 nM	< 50%	< 50%
CNc1cc(Nc2cccn([C@@H]3CCCN(CCF)C3)c2=O)nc2c(C(=O)N[C@@H]3C[C@@H]3F)cnn12 [I-901]	0.2 to 1 nM	< 50%	< 50%
CNc1cc(-c2cn(CCN3CCN(C)CC3)c3ncccc23)nc2c(C(=O)N[C@@H]3CC[C@@H]3O)cnn12 [I-907, N-((1R,2S)-2-hydroxycyclobutyl)-7-(methylamino)-5-(1-(2-(4-methylpiperazin-1-yl)ethyl)-1H-pyrrolo[2,3-b]pyridin-3-yl)pyrazolo[1,5-a]pyrimidine-3-carboxamide]	0.2 to 1 nM	< 50%	< 50%
CNc1cc(Nc2cccn([C@H]3CC[C@@]4(CCCO4)CC3)c2=O)nc2c(C(=O)NC3CC3)cnn12 [I-910]	< 0.2 nM	< 50%	< 50%
CNc1cc(Nc2cccn(C3CCCN(CCC#N)C3)c2=O)nc2c(C(=O)N[C@@H]3C[C@@H]3F)cnn12 (stereo partly drawn) [I-912]	0.2 to 1 nM	< 50%	< 50%
CNC(=O)c1nscc1Nc1cc(NC)n2ncc(C(=O)NC3CC3)c2n1 [I-913]	0.2 to 1 nM	< 50%	< 50%
CNc1cc(Nc2cccn([C@@H]3CCCC[C@@H]3OC)c2=O)nc2c(C(=O)N[C@@H]3C[C@@H]3F)cnn12 [I-915]	1 to 10 nM	< 50%	< 50%
CNc1cc(-c2cn(CCN3CCN(C)CC3)c3ncccc23)nc2c(C(=O)N[C@@H]3CC[C@H]3O)cnn12 [I-921, N-((1R,2R)-2-hydroxycyclobutyl)-7-(methylamino)-5-(1-(2-(4-methylpiperazin-1-yl)ethyl)-1H-pyrrolo[2,3-b]pyridin-3-yl)pyrazolo[1,5-a]pyrimidine-3-carboxamide]	0.2 to 1 nM	< 50%	< 50%
CNc1cc(Nc2cccn([C@H]3CCC[C@@H](OC)C3)c2=O)nc2c(C(=O)NCC3(CO)CC3)cnn12 [I-928]	0.2 to 1 nM	< 50%	< 50%
CNc1cc(Nc2cccn([C@@H]3CCC[C@H](OC)C3)c2=O)nc2c(C(=O)NCC3(CO)CC3)cnn12 [I-929]	< 0.2 nM	< 50%	< 50%
CNc1cc(Nc2cc(Cl)cn(C3CCN(C)CC3)c2=O)nc2c(C(=O)N[C@H]3CC[C@@H]3O)cnn12 [I-931]	< 0.2 nM	< 50%	< 50%
CNc1cc(Nc2cccn([C@H]3CCN(CCF)C3)c2=O)nc2c(C(=O)NC3CC3)cnn12 [I-932]	0.2 to 1 nM	< 50%	< 50%
CNc1cc(Nc2cccn([C@@H]3CCN(CCF)C3)c2=O)nc2c(C(=O)NC3CC3)cnn12 [I-933]	< 0.2 nM	< 50%	< 50%
CNc1cc(Nc2cccn([C@H]3CCN(CCF)C3)c2=O)nc2c(C(=O)N[C@@H]3C[C@@H]3F)cnn12 [I-934]	< 0.2 nM	< 50%	< 50%
CNc1cc(Nc2cccn([C@@H]3CCN(CCF)C3)c2=O)nc2c(C(=O)N[C@@H]3C[C@@H]3F)cnn12 [I-935]	< 0.2 nM	< 50%	< 50%
CNc1cc(Nc2cccn(-c3oc(C)nc3C)c2=O)nc2c(C(=O)NC3CC3)cnn12 [I-937]	1 to 10 nM	< 50%	< 50%
